The test system of one experiment is Primary human T-cells. In words: Primary Human T-Cell Proliferation Assay Stimulated with IL-2 (CellTiter-Glo). The note with it: read-out: IC50, Example 42. In kind it is cell-based. The gist of the method:
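Peripheral blood T-cells pre-activated with anti-CD3/anti-CD28 and IL-2 were washed free of IL-2, then cultured with compound plus IL-2 for 72 hours at 37° C, duplicate wells. Viability read as ATP by CellTiter-Glo luminescence; IC50 reported.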
(In general: ATP-based viability assays read luminescence as a measure of living cells.)

In experiment [1] the test system is IL-4 stimulated expression of CD23 in human Ramos B cells (JAK-1 and JAK-3). In words: Assay for Ramos B-Cell Line Stimulated with IL-4 (CD23 upregulation, FACS). In kind it is cell-based. The note with it: read-out: IC50, Example 41. A digest of the protocol:
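Read-out: anti-CD23-PE flow cytometry on Ramos B cells, giving IC50. Cells (5×10^4 per point, RPMI + 5% serum) get compound or DMSO for 1 h at 37 °C, then IL-4 50 units/mL final for 20-24 h.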

The mark [2] stands for this setting: primary human T-cells stimulated with IL-2, proliferation.
Setting [3] is: Ramos B cells stimulated with IL-4, CD23 expression by FACS.

Like-named read-outs stand apart in the source and are kept apart here.

The results in this text go back to US11827628B2, “Compositions and methods for inhibition of the JAK pathway” (Rigel Pharmaceuticals, Inc., priority 2005, dated 2023).

What is called IC50 is the concentration at which inhibition is half-maximal.

For `N#CCn1ccc2cc(Nc3nc(Nc4ccc(S(N)(=O)=O)cc4)ncc3F)ccc21` [IX-6, N2-(4-Aminosulfonylphenyl)-N4-(1-cyanomethyleneindol-5-yl)-5-fluoro-2,4-pyrimidinediamine], the results for the IC50 (with Primary human T-cells (setting [2]); in experiment [1] (setting [3])) were 535 nM and 84 nM, respectively.
Taken in the same sequence, the figures for `N#CCn1ccc2cc(Nc3nc(Nc4ccc(Cl)c(S(N)(=O)=O)c4)ncc3F)ccc21` [IX-7, N2-(3-Aminosulfonyl-4-chlorophenyl)-N4-(1-cyanomethyleneindol-5-yl)-5-fluoro-2,4-pyrimidinediamine] were 751 nM and 109 nM.
Taken in the same sequence, the figures for `Cc1ccc(Nc2ncc(F)c(Nc3ccc4c(ccn4CC#N)c3)n2)cc1S(N)(=O)=O` [IX-8, N2-(3-Aminosulfonyl-4-methylphenyl)-N4-(1-cyanomethyleneindol-5-yl)-5-fluoro-2,4-pyrimidinediamine] were 124 nM and 46.4 nM.
Taken in the same sequence, the figures for `Cc1ccc(Nc2ncc(F)c(Nc3ccc4[nH]cc(CC#N)c4c3)n2)cc1S(=O)(=O)NC1CCN(C)CC1` [IX-19, N4-(3-cyanomethylene-1H-indol-5yl)-5-fluoro-N2-[3-(1-methyl-4-aminopiperadine)sulfonyl-4-methylphenyl]-2,4-pyrimidinediamine] were 1600 nM and 118 nM.
`Cc1ccc(Nc2ncc(F)c(Nc3ccc4c(c3)c(CC#N)cn4C)n2)cc1S(N)(=O)=O` [IX-20]: the IC50 is 1790 nM with Primary human T-cells (setting [2]) and 122 nM in experiment [1] (setting [3]).
Consider `NS(=O)(=O)c1cccc(Nc2ncc(F)c(Nc3ccc(OCC(F)(F)F)cc3)n2)c1` [VI-47, N2-(3-Aminosulfonylphenyl)-5-fluoro-N4-(4-trifluoromethylmethyleneoxyphenyl)-2,4-pyrimidinediamine], for which the IC50 was found to be 259 nM in the experiment on Primary human T-cells (setting [2]) and 82.8 nM in experiment [1] (setting [3]).
For `C#CCOc1ccc(Nc2nc(Nc3ccc(C)c(S(=O)(=O)NC4CCN(C)CC4)c3)ncc2F)cc1` [VI-69, 5-Fluoro-N2-{[4-methyl-3-((1-methylpiperidin-4-yl)aminosulfonyl)]phenyl} N4-[4-(prop-2-ynyloxy)phenyl]-2,4-pyrimidinediamine] the same measures were 1340 nM and 194 nM.
For `COCCOc1ccc(Nc2nc(Nc3ccc(Cl)c(S(N)(=O)=O)c3)ncc2F)cc1` [VI-111, N2-(3-Aminosulfonyl-4-chlorophenyl)-5-fluoro-N4-[4-(2-methoxyethyleneoxy)phenyl]-2,4-pyrimdinediamine] the same measures were 1090 nM and 314 nM.
As to `COCCOc1ccc(Nc2nc(Nc3ccc(C)c(S(N)(=O)=O)c3)ncc2F)cc1` [VI-112, N2-(3-Aminosulfonyl-4-methylphenyl)-5-fluoro-N4-[4-(2-methoxyethyleneoxy)phenyl]-2,4-pyrimdinediamine], the values for the IC50 (in the experiment on Primary human T-cells (setting [2]); in experiment [1] (setting [3])) were 770 nM and 152 nM, respectively.
Taken in the same sequence, the figures for `CCS(=O)(=O)N1CCc2cc(Nc3nc(Nc4ccc(S(N)(=O)=O)cc4)ncc3F)ccc2C1` [VII-13, N2-(4-aminosulfonyl)phenyl-N4-[(N-ethylsulfonyl)-1,2,3,4-tetrahydroisoquinolin-6-yl]-5-fluoro-2,4-pyrimidinediamine] were 380 nM and 140 nM.
For `CCS(=O)(=O)N1CCc2cc(Nc3nc(Nc4cccc(S(N)(=O)=O)c4)ncc3F)ccc2C1` [VII-14, N2-(3-aminosulfonyl)phenyl-N4-[(N-ethylsulfonyl)-1,2,3,4-tetrahydroisoquinolin-6-yl]-5-fluoro-2,4-pyrimidinediamine] the same measures were 177 nM and 103 nM.
As for `CCS(=O)(=O)N1CCc2cc(Nc3nc(Nc4ccc(C)c(S(N)(=O)=O)c4)ncc3F)ccc2C1` [VII-15, N2-(3-aminosulfonyl-4-methyl)phenyl-N4-[(N-ethylsulfonyl)-1,2,3,4-tetrahydroisoquinolin-6-yl]-5-fluoro-2,4-pyrimidinediamine], the IC50 amounted to 121 nM in the experiment on Primary human T-cells (setting [2]) and 66.6 nM in experiment [1] (setting [3]).
Take `Cc1ccc(Nc2ncc(F)c(Nc3ccc4c(c3)CNCC4)n2)cc1S(N)(=O)=O` [VII-16, N2-(3-Aminosulfonyl-4-methylphenyl)-5-fluoro-N4-(1,2,3,4-tetrahydroisoquin-7-yl)-2,4-pyrimidinediamine]: the IC50 in the experiment with Primary human T-cells (setting [2]) stood at 1070 nM; in experiment [1] (setting [3]), 275 nM.
For `CNC(=O)N1CCc2ccc(Nc3nc(Nc4ccc(C)c(S(N)(=O)=O)c4)ncc3F)cc2C1` [VII-17, N2-(3-Aminosulfonyl-4-methylphenyl)-5-fluoro-N4-[2-(methylaminocarbonyl)-1,2,3,4-tetrahydroisoquin-7-yl]-2,4-pyrimidinediamine] the same measures were 2100 nM and 353 nM.
On to `Cc1ccc(Nc2ncc(F)c(Nc3ccc4c(c3)CN(C(=O)N(C)C)CC4)n2)cc1S(N)(=O)=O` [VII-18, N2-(3-Aminosulfonyl-4-methylphenyl)-5-fluoro-N4-[2-(dimethylaminocarbonyl)-1,2,3,4-tetrahydroisoquin-7-yl]-2,4-pyrimidinediamine], for which the IC50 is 839 nM with Primary human T-cells (setting [2]) and 227 nM in experiment [1] (setting [3]).
Taken in the same sequence, the figures for `CNC(=O)N1CCCc2cc(Nc3nc(Nc4ccc(C)c(S(N)(=O)=O)c4)ncc3F)ccc21` [VII-19, N2-(3-Aminosulfonyl-4-methylphenyl)-5-fluoro-N4-[1-(methylaminocarbonyl)-1,2,3,4-tetrahydroquin-6-yl]-2,4-pyrimidinediamine] were 514 nM and 87.5 nM.
For `COCCCn1ncc2cc(Nc3nc(Nc4cccc(S(N)(=O)=O)c4)ncc3F)ccc21` [VII-22, N2-(3-Aminosulfonylphenyl)-5-fluoro-N4-[1-(3-methoxypropyl)indazolin-5-yl]-2,4-pyrimidinediamine] the same measures were 128 nM and 111 nM.
Consider `COCCn1ncc2cc(Nc3nc(Nc4cccc(S(N)(=O)=O)c4)ncc3F)ccc21` [VII-23, N2-(3-Aminosulfonylphenyl)-5-fluoro-N4-[1-(2-methoxyethyl)indazolin-5-yl]-2,4-pyrimidinediamine], for which the IC50 with Primary human T-cells (setting [2]) was determined as 161 nM; in experiment [1] (setting [3]), 129 nM.
For `NC1CCOc2ccc(Nc3nc(Nc4cccc(S(N)(=O)=O)c4)ncc3F)cc21` (stereo not shown) [VII-28, N2-(3-Aminosulfonylphenyl)-N4-(chroman-4-amine-6-yl)-5-fluoro-2,4-pyrimidinediamine], the IC50 with Primary human T-cells (setting [2]) turned out to be 709 nM; in experiment [1] (setting [3]), 36.7 nM.
For the molecule `NC1CCOc2ccc(Nc3nc(Nc4ccc(S(N)(=O)=O)cc4)ncc3F)cc21` (stereo not shown) [VII-29, N2-(4-Aminosulfonylphenyl)-N4-(chroman-4-amine-6-yl)-5-fluoro-2,4-pyrimidinediamine], the IC50 with Primary human T-cells (setting [2]) stood at 1460 nM; in experiment [1] (setting [3]) it was 47.6 nM.
For `N#CCN1C(=O)CSc2ccc(Nc3nc(Nc4cccc(S(N)(=O)=O)c4)ncc3F)cc21` [VII-36, N2-(3-Aminosulphonylphenyl)-5-fluoro-N4-(3-oxo-4-cyanomethyl-benzo[1,4]thiazin-6-yl)-2,4-pyrimidinediamine] the same measures were 119 nM and 29.4 nM.
Taken in the same sequence, the figures for `CN1C(=O)C(C)(C)Oc2cc(Nc3nc(Nc4cccc(S(N)(=O)=O)c4)ncc3F)cnc21` [VII-42, N2-(3-Aminosulfonylphenyl)-N4-[2,2,4-trimethyl-3-oxo-5-pyrid[1,4]oxazin-7-yl]-5-fluoro-2,4-pyrimidinediamine] were 7280 nM and 669 nM.
For the molecule `Cc1ccc(Nc2ncc(F)c(Nc3ccc4c(c3)NC(=O)CS4)n2)cc1S(N)(=O)=O` [VII-45, N2-(3-Aminosulphonyl-4-methyl-phenyl)-5-fluoro-N4-(3-oxo-4H-benzo[1,4]thiazin-6-yl)-2,4-pyrimidinediamine], the IC50 came out at 282 nM in the experiment on Primary human T-cells (setting [2]) and 43.9 nM in experiment [1] (setting [3]).
Taken in the same sequence, the figures for `CN1C(=O)CSc2ccc(Nc3nc(Nc4cccc(S(=O)(=O)N5CCCCC5)c4)ncc3F)cc21` [VII-50, 5-Fluoro-N4-(4-methyl-3-oxo-benz[1,4]thiazin-6-yl)-N2-(3-pipendinosulfonylphenyl)-2,4-pyrimidinediamine] were 856 nM and 350 nM.
For `CS(=O)(=O)N1CCc2cc(Nc3nc(Nc4cccc(S(N)(=O)=O)c4)ncc3F)ccc21` [VII-60, N2-(3-Aminosulfonylphenyl)-5-fluoro-N4-[4-(1-methylsulfonyl)indolin-5-yl]-2,4-pyrimidinediamine] the same measures were 152 nM and 65 nM.
For `CNS(=O)(=O)c1cc(Nc2ncc(F)c(Nc3ccc4c(c3)CCN4S(C)(=O)=O)n2)ccc1C` [VII-62, 5-Fluoro-N2-[3-(N-methylaminosulfony)-4-methylphenyl]-N4-[4-(1-methylsulfonyl)indolin-5-yl]-2,4-pyrimidinediamine] the same measures were 144 nM and 104 nM.
`CS(=O)(=O)N1CCc2cc(Nc3nc(Nc4ccc(S(N)(=O)=O)cc4)ncc3F)ccc21` [VII-63]: the IC50 with Primary human T-cells (setting [2]) amounted to 301 nM; in experiment [1] (setting [3]) it was 233 nM.
As to `COc1ccc(Nc2nc(Nc3cc(C)c4c(c3)S(=O)(=O)NC=N4)ncc2F)cc1Cl` [VIII-3, N4-(3-Chloro-4-methoxyphenyl)-5-fluoro-N2-(5-methyl-2H-1,1-dioxo-1,2,4-benzothiadiazin-7-yl)-2,4-pyrimidinediamine], the IC50 in the experiment on Primary human T-cells (setting [2]) came to 1840 nM; in experiment [1] (setting [3]), 153 nM.
Regarding “N2-(3-Aminosulfonyl-4-methylphenyl)-5-fluoro-N4-[4-(2-pyridinyl)-3-fluoromethyleneoxyphenyl]-2,4-pyrimidinediamine [Compound I-172]”, the IC50 was 277 nM with Primary human T-cells (primary human T-cell proliferation stimulated with IL-2) and 47.3 nM in experiment [1] (Ramos B-cell line stimulated with IL-4, CD23 expression by FACS).
